# Test results from patent US7071203B2, “Pharmaceutically acceptable salts of 20(s)-camptothecins” (Dr. Reddy's Laboratories Limited, priority 2001, dated 2006).
# Where a name gives a salt, the structure may show the parent alone. Read-outs that look alike come from different tables or passages of the source.
# How the values were obtained:
# [1] = tested on: SF-268; test: Sulforhodamine B growth inhibition, CNS cell line SF-268; format: cell-based, human; conditions: CNS: SF-268, 48 h; for GI50: Homo sapiens, read-out: Growth Inhibition (GI 50)
# Description: (§1) Each test compound was screened against a battery of cell lines representing eight different types of cancers. In a typical procedure, 1×10^4 cells were seeded into each well of 96 well plate in 100 μL volume of RPMI 1640 medium containing antibiotics and 10% FCS.
# (§2) The plates were incubated at 37° C. in presence of CO2. After 24 h, test compounds were evaluated at five 10-fold dilutions ranging from 100 to 0.01 μM. To each test well 100 μL of test compound solution was added and medium with vehicle was added to control wells and the plates were further incubated. After 48 h of incubation, plates were terminated by Sulforhodamine B method.
# (§3) The optical density, which is proportional to protein mass, is then read by automated spectrophotometric plate reader at a wavelength of 515 nm. Readings were transferred to a microcomputer and mean 50% Growth Inhibition (GI50) and mean Total Growth Inhibition were calculated.
# [2] = tested on: OVCAR-8; test: Sulforhodamine B growth inhibition, ovarian cell line OVCAR-8; format: cell-based, human; conditions: OVARIAN: OVCAR-8, 48 h; for GI50: Homo sapiens, read-out: Growth Inhibition (GI 50)
# Description: as §1, §2, §3
# [3] = tested on: MCF-7/ADR; test: Sulforhodamine B growth inhibition, breast cell line MCF-7/ADR; format: cell-based, human; conditions: 48 h; for GI50: Homo sapiens, NCI/ADR-RES, read-out: Growth Inhibition (GI 50)
# Description: as §1, §2, §3
# [4] = tested on: DU-145; test: Sulforhodamine B growth inhibition, prostate cell line DU-145; format: cell-based, human; conditions: for GI50: Homo sapiens, read-out: Growth Inhibition (GI 50)
# Description: as §1, §2, §3
# [5] = tested on: ACHN; test: Sulforhodamine B growth inhibition, renal cell line ACHN; format: cell-based, human; conditions: 48 h; for GI50: Homo sapiens, read-out: Growth Inhibition (GI 50)
# Description: as §1, §2, §3
# [6] = tested on: HOP-62; test: Sulforhodamine B growth inhibition, lung cell line HOP-62; format: cell-based, human; conditions: LUNG: HOP-62, 48 h; for GI50: Homo sapiens, read-out: Growth Inhibition (GI 50)
# Description: as §1, §2, §3
# [7] = tested on: UACC-62; test: Sulforhodamine B growth inhibition, melanoma cell line UACC-62; format: cell-based, human; conditions: for GI50: Homo sapiens, read-out: Growth Inhibition (GI 50)
# Description: as §1, §2, §3
# [8] = tested on: U251; test: Sulforhodamine B growth inhibition, CNS cell line U251; format: cell-based, human
# Description: as §1, §2, §3
# [9] = tested on: SKOV-3; test: Sulforhodamine B growth inhibition, ovarian cell line SKOV-3; format: cell-based, human
# Description: as §1, §2, §3
# [10] = tested on: PA-1; test: Sulforhodamine B growth inhibition, ovarian cell line PA-1; format: cell-based, human; conditions: OVARIAN: PA-1, 48 h
# Description: as §1, §2, §3
# [11] = tested on: MCF 7; test: Sulforhodamine B growth inhibition, breast cell line MCF 7; format: cell-based, human
# Description: as §1, §2, §3
# [12] = tested on: PC-3; test: Sulforhodamine B growth inhibition, prostate cell line PC-3; format: cell-based, human; conditions: PROSTATE: PC-3, 48 h
# Description: as §1, §2, §3
# [13] = tested on: A 498; test: Sulforhodamine B growth inhibition, renal cell line A 498; format: cell-based, human
# Description: as §1, §2, §3
# [14] = tested on: H 522; test: Sulforhodamine B growth inhibition, lung cell line H 522; format: cell-based, human
# Description: as §1, §2, §3
# [15] = tested on: SW-620; test: Sulforhodamine B growth inhibition, colon cell line SW-620; format: cell-based, human; conditions: COLON: SW-620, 48 h
# Description: as §1, §2, §3
# [16] = Single dose oral pharmacokinetic studies; format: in vivo, Male Swiss Albino Mice
# Description: Male Swiss Albino Mice (20–30 g) were used in the experiments. The animals were maintained under standard laboratory conditions and had free access to feed and water ad libitum. Before experimentation animals were fasted overnight (˜15 h) during which they had free access to water ad libitum.
# An amount equivalent to 10 mg of drug was weighed accurately and transferred into a clean mortar and triturated to obtain a fine powder. To this 500 μl of DMSO (10%) was added to obtain a clear solution. To this 4.5 ml of sodium carboxy methyl cellulose (sodium CMC) was added to make up the volume to 5 ml. Based on the animal weight appropriate volume (body weight in grams×10=no. of μl of dose to be given) of the prepared solution was administered through oral gavage.
# After dosing, at designated time points (0.5, 1, 2, 3, 5, 8 and 12 h) 100 μl of blood was collected from retro orbital plexus into 0.5 ml eppendorff tubes containing EDTA (5 μl of 200 mg/ml solution in Milli Q water). Blood was centrifuged at 12,800 rpm for 2 min and plasma was separated and immediately taken for analysis, without delay, in order to estimate both lactone and carboxylate forms of the compound.
# 50 μl plasma was transferred into a clean 2 ml micro centrifuge tube. To this ice cold methanol was added (450 μl) and vertex mixed for 15 sec to extract the compound. These contents were centrifuged for 2 min at 12,800 rpm dry centrifuge tube. Clear supernatant was separated in to a 300 μl of auto sampler vial maintained at 4° C. and 20 μl of this was injected into HPLC column. HPLC Conditions:
# HPLC system (Shimadzu) consisted of system controller (SCL-10AVP), Isocratic pump (LC-10ATVP), auto sampler (SIL-10ADVP), fluorescence detector (RF-10AXL) and column oven at 25° C. (CTO-1OASVP) was controlled by Class-VP software. Sample was eluted through column (Supelcosil-LC318, 5μ, 4.6×250 mm, 300° A) with mobile phase [1% TEAA (pH=5.5):Acetonitrile:MeOH::80:15:5) pumped at 1.0 ml/min flow rate and eluent was detected using fluorescence detector set at Ex. 370 nm/Em. 537 nm. The approx. RTs were carboxylate (CA1=4.1 min, CA2=4.8 min) and lactone (LA1=7.9 min, LA2=11.6 min).
# For the determination of drug concentration, peak area ratios of the drug to internal standard versus the concentration (range: 0.05–10 μg/ml) for both carboxylate and lactone forms were plotted separately and linear regression was applied using software “Sigma Plot” (Jandel Scientific version, 2.0, USA). Correlation coefficients (r^2) of 0.99 or better were obtained.
# Pharmacokinetic parameters were calculated for both carboxylate and lactone forms separately by non-compartmental model analysis. The peak plasma concentration (Cmax) and the corresponding time (Tmax) were directly obtained from the raw data. The area under the plasma concentration versus time curve up to the last quantifiable time point, AUC(0-t) was obtained by the linear and log-linear trapezoidal summation. The AUC(0-t) extrapolated to infinity (i.e., AUC (0-∞)) by adding the quotient of Clast/Kel, where Clast represents the last measurable time concentration and Kel represents the apparent terminal rate constant. Kel was calculated by the linear regression of the log-transformed concentrations of the drug in the terminal phase. The half-life of the terminal elimination phase was obtained using the relationship t1/2=0.693/ Kel.
# [17] = BREAST: MCF-7/ADR, Sulforhodamine B
# [18] = PROSTATE: DU-145, 48 h, Sulforhodamine B
# [19] = MELANOMA: UACC-62, 48 h, Sulforhodamine B
# [20] = Homo sapiens, read-out: Growth Inhibition (GI 50)
# [21] = Lactone, single oral dose, mice, plasma, n = 3
# [22] = male, Swiss Albino, mouse, in vivo, po
smiles,measurement,setting,value
"CC[C@@]1(O)C(=O)OCc2c1cc1n(c2=O)C(O)c2cc3c(CN(C)C)c(O)ccc3nc2-1 (stereo partly drawn) [Example 1, 10-Hydroxy-9-N,N-dimethylaminomethyl-5-hydroxy-20(S)-camptothecin hydrochloride]",Total Growth Inhibition (TGI),[1],90.0 µM
same,GI50,[1],0.55 µM
same,GI50,[2],0.5 µM
same,Total Growth Inhibition (TGI),[2],>100 µM
same,Total Growth Inhibition (TGI),[3]; [17],0.9 µM
same,GI50,[3],0.25 µM
same,GI50,"[4]; DU-145, 48 h",0.4 µM
same,Total Growth Inhibition (TGI),[4]; [18],0.8 µM
same,Total Growth Inhibition (TGI),[5],1.0 µM
same,GI50,[5],0.4 µM
same,GI50,[6],0.6 µM
same,Total Growth Inhibition (TGI),[6],25.0 µM
same,GI50,"[7]; UACC-62, 48 h",0.7 µM
same,Total Growth Inhibition (TGI),[7]; [19],4.5 µM
"CC[C@@]1(O)C(=O)OCc2c1cc1n(c2=O)C(OCCO)c2cc3c(CN(C)C)c(O)ccc3nc2-1 (stereo partly drawn) [Example 2, 10-Hydroxy-9-N,N-dimethylaminomethyl-5-(2′-hydroxyethoxy)-20(S)-camptothecin hydrochloride]",Total Growth Inhibition (TGI),[1],>100 µM
same,GI50,[1],7.5 µM
same,GI50,[2],1 µM
same,Total Growth Inhibition (TGI),[2],80.0 µM
same,Total Growth Inhibition (TGI),[3]; [17],50.0 µM
same,GI50,[3],7.5 µM
same,GI50,"[4]; DU-145, 48 h",5.5 µM
same,Total Growth Inhibition (TGI),[4]; [18],25.0 µM
same,Total Growth Inhibition (TGI),[5],40.0 µM
same,GI50,[5],4 µM
same,GI50,[6],8 µM
same,Total Growth Inhibition (TGI),[6],>100 µM
same,GI50,"[7]; UACC-62, 48 h",6 µM
same,Total Growth Inhibition (TGI),[7]; [19],6.0 µM
"CC[C@@]1(O)C(=O)OCc2c1cc1n(c2=O)C(OCCF)c2cc3c(CN(C)C)c(O)ccc3nc2-1 (stereo partly drawn) [Example 3, 10-Hydroxy-9-N,N-dimethylaminomethyl-5-(2′-fluoroethoxy)-20(S)-camptothecin hydrochloride]",Total Growth Inhibition (TGI),[3]; [17],>100 µM
same,GI50,[3]; [17],8 µM
same,GI50,[4]; [18],4 µM
same,Total Growth Inhibition (TGI),[4]; [18],>100 µM
same,GI50,[7]; [19],1.5 µM
same,Total Growth Inhibition (TGI),[7]; [19],8.0 µM
same,Total Growth Inhibition (TGI),[8]; 48 h,>100 µM
same,GI50,"[8]; Homo sapiens, U-251, 48 h, read-out: Growth Inhibition (GI 50)",1.5 µM
same,GI50,"[9]; Homo sapiens, SK-OV-3, OVARIAN: SKOV-3, 48 h, read-out: Growth Inhibition (GI 50)",6 µM
same,Total Growth Inhibition (TGI),"[9]; OVARIAN: SKOV-3, 48 h",40.0 µM
same,GI50,[10]; [20],1 µM
same,Total Growth Inhibition (TGI),[10],5.0 µM
same,Total Growth Inhibition (TGI),"[11]; BREAST: MCF 7, 48 h",10.0 µM
same,GI50,"[11]; Homo sapiens, MCF7, BREAST: MCF 7, 48 h, read-out: Growth Inhibition (GI 50)",7.5 µM
same,GI50,[12]; [20],9 µM
same,Total Growth Inhibition (TGI),[12],>100 µM
same,GI50,"[13]; Homo sapiens, A498, RENAL: A 498, 48 h, read-out: Growth Inhibition (GI 50)",0.7 µM
same,Total Growth Inhibition (TGI),"[13]; RENAL: A 498, 48 h",15.0 µM
same,GI50,"[14]; Homo sapiens, NCI-H522, LUNG: H 522, 48 h, read-out: Growth Inhibition (GI 50)",0.9 µM
same,Total Growth Inhibition (TGI),"[14]; LUNG: H 522, 48 h",90.0 µM
same,Total Growth Inhibition (TGI),[15],>100 µM
same,GI50,[15]; [20],60 µM
same,Kel,[16]; [21],0.19 h⁻¹
same,"T1/2β(4,6,8h)^@",[16]; [21],422 min
same,AUC(0-inf),[16]; [22],9.74 µM·h
same,AUC(0-t),[16]; [22],6.1 µM·h
same,AUC(0–t),[16]; [22],11.05 µM·h
same,AUC(0–∞),[16]; [22],15.14 µM·h
same,Tmax,[16]; [22],15 min
